Patent US12577228B2, “Dihydrocyclopenta-isoquinoline-sulfonamide derivatives compounds” (UCB Biopharma SRL, priority 2019, dated 2026)
Structures can show the parent of a compound that is named as a salt.

target: T1, IgE-Tb / soluble IgE receptor FcεRIα with a Y131A mutation (Homo sapiens, UniProt P01854, N146Q/N252Q); experiment: in vitro FRET assay: binding of IgE-Tb to receptor FcεRIα-Y131A-AF488 and its inhibition by compounds; conditions: 5 nM IgE-Tb, 25 nM FcεRIα-Y131A-AF488, 2 hours at room temperature; read-out: FRET IC50 range
T1 construct: fused on or other part: Terbium chelate (LanthaScreen amine-reactive) on IgE-Fc; Alexa Fluor 488 hydrazide on the oxidised glycans of sFcεRIα; Both are labels and no part of the key
T1 sequence (P01854 104-427 N146Q/N252Q): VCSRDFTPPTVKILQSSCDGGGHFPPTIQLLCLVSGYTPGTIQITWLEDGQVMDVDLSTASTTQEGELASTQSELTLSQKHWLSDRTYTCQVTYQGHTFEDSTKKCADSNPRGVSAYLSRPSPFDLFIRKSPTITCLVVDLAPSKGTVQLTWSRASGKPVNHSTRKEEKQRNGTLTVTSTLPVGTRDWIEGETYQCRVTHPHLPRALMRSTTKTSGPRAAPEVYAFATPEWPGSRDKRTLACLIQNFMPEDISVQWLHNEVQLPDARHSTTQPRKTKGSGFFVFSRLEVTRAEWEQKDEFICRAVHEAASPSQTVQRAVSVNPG
T1 sequence (P12319 26-201 Y156A partner): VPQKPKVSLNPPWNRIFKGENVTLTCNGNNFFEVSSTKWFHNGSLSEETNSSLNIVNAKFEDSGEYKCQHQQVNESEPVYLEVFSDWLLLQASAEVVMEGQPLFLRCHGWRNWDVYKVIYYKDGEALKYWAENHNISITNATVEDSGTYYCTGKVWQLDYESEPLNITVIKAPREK

Structure (SMILES) | IC50
CC(C)CNS(=O)(=O)c1c2c(cc3cnc(C4CC4)cc13)CCC2 [Example 69, 3-cyclopropyl-N-isobutyl-7,8-dihydro-6H-cyclopenta[g]isoquinoline-5-sulfonamide] | 50 to 100 nM
Cc1nnc(-c2ccc(N[C@@H]3Cc4cc5cnc(C6CC6)cc5c(S(=O)(=O)NCC(C)(C)F)c4C3)cc2)o1 [Example 70, (7R)-3-cyclopropyl-N-(2-fluoro-2-methylpropyl)-7-[4-(5-methyl-1,3,4-oxadiazol-2-yl)anilino]-7,8-dihydro-6H-cyclopenta[g]isoquinoline-5-sulfonamide] | 10 to 50 nM
CC(C)(F)CNS(=O)(=O)c1c2c(cc3cnc(C4CC4)cc13)CC(c1nc3c(=O)[nH]ccc3[nH]1)C2 (stereo not shown) [Example 71, 3-cyclopropyl-N-(2-fluoro-2-methylpropyl)-7-(4-oxo-1,5-dihydroimidazo[4,5-c]pyridin-2-yl)-7,8-dihydro-6H-cyclopenta[g]isoquinoline-5-sulfonamide] | 50 to 100 nM
CC(C)(F)CNS(=O)(=O)c1c2c(cc3cnc(C4CC4)cc13)CN(C(=O)Cc1cccnc1)C2 [Example 72, 7-cyclopropyl-N-(2-fluoro-2-methylpropyl)-2-(2-pyridin-3-ylacetyl)-1,3-dihydropyrrolo[3,4-g]isoquinoline-9-sulfonamide] | 100 to 2000 nM
CC(C)(F)CNS(=O)(=O)c1c2c(cc3cnc(C4CC4)cc13)C[C@@H](Nc1ccc(F)nc1)C2 [Example 73, (7R)-3-cyclopropyl-N-(2-fluoro-2-methylpropyl)-7-[(6-fluoropyridin-3-yl)amino]-7,8-dihydro-6H-cyclopenta[g]isoquinoline-5-sulfonamide] | 10 to 50 nM
O=S(=O)(NC1CC(F)(F)C1)c1c2c(cc3cnc(C4CC4)cc13)CC(Nc1ccc(C3(O)COC3)nc1)C2 (stereo not shown) [Example 74, 3-cyclopropyl-N-(3,3-difluorocyclobutyl)-7-[[6-(3-hydroxyoxetan-3-yl)pyridin-3-yl]amino]-7,8-dihydro-6H-cyclopenta[g]isoquinoline-5-sulfonamide] | 10 to 50 nM
CC(C)(F)CNS(=O)(=O)c1c2c(cc3cnc(C4CC4)cc13)C[C@@H](Nc1cncc(Oc3cc[nH]c(=O)c3)c1)C2 [Example 75, (7R)-3-cyclopropyl-N-(2-fluoro-2-methylpropyl)-7-[[5-[(2-oxo-1H-pyridin-4-yl)oxy]pyridin-3-yl]amino]-7,8-dihydro-6H-cyclopenta[g]isoquinoline-5-sulfonamide] | 10 to 50 nM
CC(C)NC(=O)c1ccc(N[C@@H]2Cc3cc4cnc(C5CC5)cc4c(S(=O)(=O)NCC(C)(C)F)c3C2)cn1 [Example 77, 5-[[(7R)-3-cyclopropyl-5-[(2-fluoro-2-methylpropyl)sulfamoyl]-7,8-dihydro-6H-cyclopenta[g]isoquinolin-7-yl]amino]-N-propan-2-ylpyridine-2-carboxamide] | 10 to 50 nM
Cc1ncccc1-n1cnnc1NC1Cc2cc3cnc(C4CC4)cc3c(S(=O)(=O)NCC(C)(C)F)c2C1 (stereo not shown) [Example 78, 3-cyclopropyl-N-(2-fluoro-2-methylpropyl)-7-[[4-(2-methylpyridin-3-yl)-1,2,4-triazol-3-yl]amino]-7,8-dihydro-6H-cyclopenta[g]isoquinoline-5-sulfonamide] | 100 to 2000 nM
CC(C)(F)CNS(=O)(=O)c1c2c(cc3cnc(C4CC4)cc13)CC(c1ccno1)C2 (stereo not shown) [Example 79, 3-cyclopropyl-N-(2-fluoro-2-methylpropyl)-7-(1,2-oxazol-5-yl)-7,8-dihydro-6H-cyclopenta[g]isoquinoline-5-sulfonamide] | 100 to 2000 nM
Cc1ccc(NC2Cc3cc4cnc(C5CC5)cc4c(S(=O)(=O)NCC(C)(C)O)c3C2)nn1 (stereo not shown) [Example 80, 3-cyclopropyl-N-(2-hydroxy-2-methylpropyl)-7-[(6-methylpyridazin-3-yl)amino]-7,8-dihydro-6H-cyclopenta[g]isoquinoline-5-sulfonamide] | 100 to 2000 nM
CC1(C)CC1NS(=O)(=O)c1c2c(cc3cnc(C4CC4)cc13)CC(C(=O)Nc1cccnc1)C2 (stereo not shown) [Example 81, 3-cyclopropyl-5-[(2,2-dimethylcyclopropyl)sulfamoyl]-N-pyridin-3-yl-7,8-dihydro-6H-cyclopenta[g]isoquinoline-7-carboxamide] | 100 to 2000 nM
CC(C)(F)CNS(=O)(=O)c1c2c(cc3cnc(C4CC4)cc13)CC(Nc1cncc3[nH]ncc13)C2 (stereo not shown) [Example 83, 3-cyclopropyl-N-(2-fluoro-2-methyl-propyl)-7-(1H-pyrazolo[3,4-c]pyridin-4-ylamino)-7,8-dihydro-6H-cyclopenta[g]isoquinoline-5-sulfonamide, formate salt] | 10 to 50 nM
Cn1ncc2c(NC3Cc4cc5cnc(C6CC6)cc5c(S(=O)(=O)NCC(C)(C)F)c4C3)cncc21 (stereo not shown) [Example 84, 3-cyclopropyl-N-(2-fluoro-2-methylpropyl)-7-[(1-methylpyrazolo[3,4-c]pyridin-4-yl)amino]-7,8-dihydro-6H-cyclopenta[g]isoquinoline-5-sulfonamide] | 10 to 50 nM
CC(C)(C)OC(=O)c1ccc(N[C@@H]2Cc3cc4cnc(C5CC5)cc4c(S(=O)(=O)NC4CC(F)(F)C4)c3C2)cn1 [Example 85, tert-butyl 5-[[(7R)-3-cyclopropyl-5-[(3,3-difluorocyclobutyl)sulfamoyl]-7,8-dihydro-6H-cyclopenta[g]isoquinolin-7-yl]amino]pyridine-2-carboxylate] | 10 to 50 nM
CC(C)(F)CNS(=O)(=O)c1c2c(cc3cnc(C4CC4)cc13)CC(Nc1cccnc1)C2 (stereo not shown) [Example 86, 3-cyclopropyl-N-(2-fluoro-2-methylpropyl)-7-(pyridin-3-ylamino)-7,8-dihydro-6H-cyclopenta[g]isoquinoline-5-sulfonamide] | 10 to 50 nM
CC(C)(F)CNS(=O)(=O)c1c2c(cc3cnc(C4CC4)cc13)CC(NC(=O)Cc1ccccc1)C2 (stereo not shown) [Example 87, N-[3-cyclopropyl-5-[(2-fluoro-2-methylpropyl)sulfamoyl]-7,8-dihydro-6H-cyclopenta[g]isoquinolin-7-yl]-2-phenylacetamide] | 50 to 100 nM
CC(C)CNS(=O)(=O)c1c2c(cc3cnc(C4CC4)cc13)CC(Nc1ccc(C(=O)O)nc1)C2 (stereo not shown) [Example 88, 5-[[3-cyclopropyl-5-(isobutylsulfamoyl)-7,8-dihydro-6H-cyclopenta[g]isoquinolin-7-yl]amino]pyridine-2-carboxylic acid; hydrochloride] | 50 to 100 nM
O=C(O)c1ccc(NC2Cc3cc4cnc(C5CC5)cc4c(S(=O)(=O)NC4CC(F)(F)C4)c3C2)cn1 (stereo not shown) [Example 89, 5-[[3-cyclopropyl-5-[(3,3-difluorocyclobutyl)sulfamoyl]-7,8-dihydro-6H-cyclopenta[g]isoquinolin-7-yl]amino]pyridine-2-carboxylic acid] | 100 to 2000 nM
CC(C)(F)CNS(=O)(=O)c1c2c(cc3cnc(C4CC4)cc13)C[C@H](n1cnc(C(N)=O)c1N)C2 [Example 90, 5-amino-1-[(7S)-3-cyclopropyl-5-[(2-fluoro-2-methylpropyl)sulfamoyl]-7,8-dihydro-6H-cyclopenta[g]isoquinolin-7-yl]imidazole-4-carboxamide] | 100 to 2000 nM
CC(C)(F)CNS(=O)(=O)c1c2c(cc3cnc(C4CC4)cc13)CN(Cc1cccnc1)C2 [Example 91, 7-cyclopropyl-N-(2-fluoro-2-methyl-propyl)-2-(3-pyridylmethyl)-1,3-dihydropyrrolo[3,4-g]isoquinoline-9-sulfonamide; formic acid] | 100 to 2000 nM
Cc1nnc(-n2ccc(N[C@@H]3Cc4cc5cnc(C6CC6)cc5c(S(=O)(=O)NCC(C)(C)F)c4C3)cc2=O)o1 [Example 92, (7R)-3-cyclopropyl-N-(2-fluoro-2-methylpropyl)-7-[[1-(5-methyl-1,3,4-oxadiazol-2-yl)-2-oxopyridin-4-yl]amino]-7,8-dihydro-6H-cyclopenta[g]isoquinoline-5-sulfonamide] | 10 to 50 nM
CNS(=O)(=O)c1ccc(N[C@@H]2Cc3cc4cnc(C5CC5)cc4c(S(=O)(=O)NCC(C)(C)F)c3C2)cn1 [Example 93, (7R)-3-cyclopropyl-N-(2-fluoro-2-methylpropyl)-7-[[6-(methylsulfamoyl)pyridin-3-yl]amino]-7,8-dihydro-6H-cyclopenta[g]isoquinoline-5-sulfonamide] | 10 to 50 nM
NC(=O)c1ccc(N[C@@H]2Cc3cc4cnc(C5CC5)cc4c(S(=O)(=O)NC4CC(F)(F)C4)c3C2)nn1 [Example 94, 6-[[(7R)-3-cyclopropyl-5-[(3,3-difluorocyclobutyl)sulfamoyl]-7,8-dihydro-6H-cyclopenta[g]isoquinolin-7-yl]amino]pyridazine-3-carboxamide] | 10 to 50 nM
CC(=O)NS(=O)(=O)c1ccc(N[C@@H]2Cc3cc4cnc(C5CC5)cc4c(S(=O)(=O)NCC(C)(C)F)c3C2)cn1 [Example 95, N-[5-[[(7R)-3-cyclopropyl-5-[(2-fluoro-2-methylpropyl)sulfamoyl]-7,8-dihydro-6H-cyclopenta[g]isoquinolin-7-yl]amino]pyridin-2-yl]sulfonylacetamide] | 50 to 100 nM
Cn1ccc(NC2Cc3cc4cnc(C5CC5)cc4c(S(=O)(=O)NCC(C)(C)F)c3C2)cc1=O (stereo not shown) [Example 96, 3-cyclopropyl-N-(2-fluoro-2-methyl-propyl)-7-[(1-methyl-2-oxo-4-pyridyl)amino]-7,8-dihydro-6H-cyclopenta[g]isoquinoline-5-sulfonamide; formate salt] | 10 to 50 nM
Cc1nnc(NC2Cc3cc4cnc(C5CC5)cc4c(S(=O)(=O)NCC(C)(C)F)c3C2)o1 (stereo not shown) [Example 97, 3-cyclopropyl-N-(2-fluoro-2-methylpropyl)-7-[(5-methyl-1,3,4-oxadiazol-2-yl)amino]-7,8-dihydro-6H-cyclopenta[g]isoquinoline-5-sulfonamide] | 100 to 2000 nM
CC(C)(F)CNS(=O)(=O)c1c2c(cc3cnc(C4CC4)cc13)CC(NC1=CC(=O)C1(C)C)C2 (stereo not shown) [Example 98, 3-cyclopropyl-7-[(4,4-dimethyl-3-oxocyclobuten-1-yl)amino]-N-(2-fluoro-2-methylpropyl)-7,8-dihydro-6H-cyclopenta[g]isoquinoline-5-sulfonamide] | 100 to 2000 nM
